For nine molecules, IC50 results are on record in ChEMBL document CHEMBL1201861, “Genomics of Drug Sensitity in Cancer screening data, Wellcome Trust Sanger Institute”.

Some results are limits rather than exact numbers.

Common to all, as to format: functional, cell-based
One test deals with Caov-3 cell line. As to the kind of experiment: cells. Particulars: Homo sapiens.
For the next test, the system named is DMS-53. Kind of test: cells. Particulars: Homo sapiens.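 Further: cell viability assay measuring growth inhibition of human DMS-53 cells.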
A further test deals with DV-90. Kind of test: cells. The conditions noted are these: Homo sapiens.
The test system of the next test is EW-7. Kind of test: SANGER: Inhibition of human EW-7 cell growth in a cell viability assay.
Another test relates to HCC1143. Kind of test: cells. Particulars: Homo sapiens.
For a further test, the system named is IPC-298. Kind of test: SANGER: Inhibition of human IPC-298 cell growth in a cell viability assay.
A further test has as its system MES-SA. As to the kind of experiment: cells. Particulars: Homo sapiens.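 Further: growth inhibition of human MES-SA cells, read out with a cell viability assay.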
A further test concerns MFE-296. Kind of test: SANGER: Inhibition of human MFE-296 cell growth in a cell viability assay.
A further test relates to NCI-H1618. Kind of test: cells. The conditions noted are these: Homo sapiens.
Another test has as its system NCI-H2227. Kind of test: cells. Particulars: Homo sapiens.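 Further: growth inhibition of the human cell line, read out with a cell viability assay.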
For the next test, the system named is NCI-H838. As to the kind of experiment: cells. Particulars: Homo sapiens.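 Further: growth inhibition of human NCI-H838 cells, read out by a cell viability assay.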
Another test has as its system RT-4. Kind of test: SANGER: Inhibition of human RT4 cell growth in a cell viability assay.
The next test concerns SK-CO-1. As to the kind of experiment: cells. The conditions noted are these: Homo sapiens.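 Further: growth inhibition of SK-CO-1 cells, determined by a viability readout.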
The next test concerns SNG-M. Kind of test: cells. Particulars: Homo sapiens.
The subject of the next test is SNU-475. Kind of test: cells. Particulars: Homo sapiens.
Another test concerns C-4-II. As to the kind of experiment: SANGER: Inhibition of human C-4-II cell growth in a cell viability assay.
The next test concerns TT. Kind of test: cells. Particulars: Homo sapiens.
The next test concerns CCF-STTG1. As to the kind of experiment: cells. Particulars: Homo sapiens.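 Further: growth inhibition of human CCF-STTG1 cells, determined with a cell viability read-out.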
For a further test, the system named is COLO 205. As to the kind of experiment: cells. Particulars: Homo sapiens.
A further test deals with D-423MG. As to the kind of experiment: cells. The conditions noted are these: Homo sapiens.
The next test has as its system D-566MG. As to the kind of experiment: cells. Particulars: Homo sapiens.
The subject of a further test is ECC10. As to the kind of experiment: cells. The conditions noted are these: Homo sapiens.
The subject of the next test is EPLC-272H. Kind of test: cells. Particulars: Homo sapiens.
Another test has as its system H-EMC-SS. As to the kind of experiment: cells. Particulars: Homo sapiens.
Another test concerns H9. Kind of test: cells. Particulars: Homo sapiens.
The test system of another test is NBsusSR. Kind of test: cells. The conditions noted are these: Homo sapiens.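 Further: growth inhibition of the human cell line, read out with a cell viability assay.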
A further test has as its system NCI-H1048. As to the kind of experiment: cells. Particulars: Homo sapiens.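 Further: growth inhibition of human NCI-H1048 cells, read out with a cell viability assay.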
Another test relates to NCI-H1666. Kind of test: cells. Particulars: Homo sapiens.
A further test concerns NCI-H2029. Kind of test: cells. The conditions noted are these: Homo sapiens.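 Further: Read-out is a viability assay on the cultured cells, and IC50 is the concentration that suppresses cell growth.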
The subject of the next test is NCI-H2291. As to the kind of experiment: cells. Particulars: Homo sapiens.
A further test deals with OC-314. As to the kind of experiment: cells. The conditions noted are these: Homo sapiens.
A further test concerns RH-18. As to the kind of experiment: cells. Particulars: Homo sapiens, Rh18.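 Further: growth inhibition of human RH-18 cells, read out with a cell viability assay.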
A further test concerns SW 1116. As to the kind of experiment: cells. Particulars: Homo sapiens.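 Further: growth inhibition of SW1116 cells, read out with a cell viability assay.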
In the next test the test system is SW900. Kind of test: cells. Particulars: Homo sapiens.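 Further: IC50 is the concentration that inhibits SW900 cell growth, measured by a cell viability assay.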
Another test concerns A549. As to the kind of experiment: cells. Particulars: Homo sapiens.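 Further: growth inhibition of A549 cells, read out with a cell viability assay.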
The next test has as its system BALL-1. Kind of test: cells. The conditions noted are these: Homo sapiens.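 Further: growth inhibition of BALL-1 cells, read out with a cell viability assay.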
For the next test, the system named is BT-549. As to the kind of experiment: cells. The conditions noted are these: Homo sapiens.
For the next test, the system named is TGBC11TKB. As to the kind of experiment: cells. Particulars: Homo sapiens.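 Further: growth inhibition of human TGBC11TKB cells, measured by a cell viability assay.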
A further test relates to TI-73. Kind of test: cells. Particulars: Homo sapiens.
The test system of another test is YH-13. As to the kind of experiment: cells. Particulars: Homo sapiens.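 Further: cell viability readout of growth suppression in the human YH-13 cell line.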
The test system of a further test is ZR-75-30. As to the kind of experiment: cells. Particulars: Homo sapiens.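 Further: growth inhibition of ZR-75-30 cells, measured with a cell viability readout.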
The test system of another test is CFPAC-1. Kind of test: cells. The conditions noted are these: Homo sapiens.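 Further: cell viability readout used to gauge suppression of CFPAC-1 cell proliferation.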

Description for A549: SANGER: Inhibition of human A549 cell growth in a cell viability assay.
Description for BALL-1: SANGER: Inhibition of human BALL-1 cell growth in a cell viability assay.
Description for BT-549: SANGER: Inhibition of human BT-549 cell growth in a cell viability assay.
Description for CCF-STTG1: SANGER: Inhibition of human CCF-STTG1 cell growth in a cell viability assay.
Description for CFPAC-1: SANGER: Inhibition of human CFPAC-1 cell growth in a cell viability assay.
Description for COLO 205: SANGER: Inhibition of human COLO-205 cell growth in a cell viability assay.
Description for Caov-3 cell line: SANGER: Inhibition of human Caov-3 cell growth in a cell viability assay.
Description for D-423MG: SANGER: Inhibition of human D-423MG cell growth in a cell viability assay.
Description for DMS-53: SANGER: Inhibition of human DMS-53 cell growth in a cell viability assay.
Description for DV-90: SANGER: Inhibition of human DV-90 cell growth in a cell viability assay.
Description for ECC10: SANGER: Inhibition of human ECC10 cell growth in a cell viability assay.
Description for EPLC-272H: SANGER: Inhibition of human EPLC-272H cell growth in a cell viability assay.
Description for H-EMC-SS: SANGER: Inhibition of human H-EMC-SS cell growth in a cell viability assay.
Description for H9: SANGER: Inhibition of human H9 cell growth in a cell viability assay.
Description for HCC1143: SANGER: Inhibition of human HCC1143 cell growth in a cell viability assay.
Description for MES-SA: SANGER: Inhibition of human MES-SA cell growth in a cell viability assay.
Description for NBsusSR: SANGER: Inhibition of human NBsusSR cell growth in a cell viability assay.
Description for NCI-H1048: SANGER: Inhibition of human NCI-H1048 cell growth in a cell viability assay.
Description for NCI-H1618: SANGER: Inhibition of human NCI-H1618 cell growth in a cell viability assay.
Description for NCI-H1666: SANGER: Inhibition of human NCI-H1666 cell growth in a cell viability assay.
Description for NCI-H2029: SANGER: Inhibition of human NCI-H2029 cell growth in a cell viability assay.
Description for NCI-H2227: SANGER: Inhibition of human NCI-H2227 cell growth in a cell viability assay.
Description for NCI-H2291: SANGER: Inhibition of human NCI-H2291 cell growth in a cell viability assay.
Description for NCI-H838: SANGER: Inhibition of human NCI-H838 cell growth in a cell viability assay.
Description for OC-314: SANGER: Inhibition of human OC-314 cell growth in a cell viability assay.
Description for RH-18: SANGER: Inhibition of human RH-18 cell growth in a cell viability assay.
Description for SK-CO-1: SANGER: Inhibition of human SK-CO-1 cell growth in a cell viability assay.
Description for SNG-M: SANGER: Inhibition of human SNG-M cell growth in a cell viability assay.
Description for SNU-475: SANGER: Inhibition of human SNU-475 cell growth in a cell viability assay.
Description for SW 1116: SANGER: Inhibition of human SW1116 cell growth in a cell viability assay.
Description for SW900: SANGER: Inhibition of human SW900 cell growth in a cell viability assay.
Description for TGBC11TKB: SANGER: Inhibition of human TGBC11TKB cell growth in a cell viability assay.
Description for TI-73: SANGER: Inhibition of human TI-73 cell growth in a cell viability assay.
Description for YH-13: SANGER: Inhibition of human YH-13 cell growth in a cell viability assay.
Description for ZR-75-30: SANGER: Inhibition of human ZR-75-30 cell growth in a cell viability assay.

The term IC50 denotes the concentration needed to halve the response being measured. Regarding `N#C/C(=C1/Nc2ccccc2S1)c1ccnc(NCCc2cccnc2)n1`, the concentration for half-maximal inhibition (IC50) was greater than 8000 nM with Caov-3 cell line; greater than 8000 nM in the test with DMS-53; greater than 8000 nM in the test on DV-90; greater than 8000 nM in the test with EW-7; 4210 nM in the test with HCC1143; 7400 nM with IPC-298. For the same molecule, the IC50 in the test on MES-SA was 4670 nM; in the test on MFE-296, 1550 nM; in the test on NCI-H1618 it was greater than 8000 nM; with NCI-H2227 it was greater than 8000 nM; in the test with NCI-H838, greater than 8000 nM; with RT-4, greater than 8000 nM. Also, the IC50 with SK-CO-1 is greater than 8000 nM; with SNG-M, 980 nM; with SNU-475, greater than 8000 nM; in the test with C-4-II, greater than 8000 nM; with TT, greater than 8000 nM; in the test with CCF-STTG1 it was 6410 nM. Further, in the test with COLO 205, the IC50 is greater than 8000 nM.

On to `C/C(O)=C(\C#N)C(=O)Nc1cc(Br)ccc1Br`, for which the IC50 in the test with Caov-3 cell line, with DMS-53, with DV-90, in the test on EW-7, in the test with HCC1143 and with IPC-298 was greater than 16000 nM each time. In addition, the concentration for half-maximal inhibition (IC50) in the test with MES-SA, in the test with MFE-296, in the test on NCI-H1618, with NCI-H2227, with NCI-H838 and with RT-4 was greater than 16000 nM throughout. In addition, the IC50 in the test with SK-CO-1, with SNG-M, with SNU-475, in the test with C-4-II, with TT and with CCF-STTG1 was greater than 16000 nM throughout. The molecule also yielded an IC50 in the test with COLO 205 greater than 16000 nM.

In the case of `CC(O)(CS(=O)(=O)c1ccc(F)cc1)C(=O)Nc1ccc(C#N)c(C(F)(F)F)c1` (stereo not drawn) [BICALUTAMIDE], the IC50 in the test on Caov-3 cell line, in the test on DMS-53, in the test on DV-90, with EW-7, in the test with HCC1143 and with IPC-298 was greater than 1020 nM each time. Besides, the IC50 with MES-SA, with MFE-296, in the test on NCI-H1618, in the test on NCI-H2227, with NCI-H838 and in the test on RT-4 was greater than 1020 nM each time. Besides, the concentration for half-maximal inhibition (IC50) in the test on SK-CO-1, in the test on SNG-M, in the test with SNU-475, in the test with C-4-II, in the test with TT and with CCF-STTG1 was greater than 1020 nM throughout. The molecule also came in with an IC50 in the test on COLO 205 greater than 1020 nM.

Turning to `COc1cc(Nc2c(C#N)cnc3cc(OCCCN4CCN(C)CC4)c(OC)cc23)c(Cl)cc1Cl` [BOSUTINIB], the 50% inhibitory concentration (IC50) in the test on D-423MG is greater than 2000 nM; in the test with D-566MG it was 1570 nM; in the test on ECC10, greater than 2000 nM; with EPLC-272H, greater than 2000 nM; in the test on H-EMC-SS, greater than 2000 nM; in the test on H9, 435 nM. Moreover, the IC50 was greater than 2000 nM in the test with NBsusSR; greater than 2000 nM in the test on NCI-H1048; greater than 2000 nM with NCI-H1666; greater than 2000 nM in the test on NCI-H2029; greater than 2000 nM in the test with NCI-H2291; 870 nM in the test on OC-314. The IC50 in the test with RH-18, with SW 1116, with SW900, with A549, with BALL-1 and with BT-549 was greater than 2000 nM throughout. In addition, the IC50 was greater than 2000 nM in the test with TGBC11TKB; 1020 nM in the test with TI-73; greater than 2000 nM with YH-13; greater than 2000 nM with ZR-75-30; greater than 2000 nM with CFPAC-1.

For the molecule `CC[C@@]1(O)C(=O)OCc2c1cc1n(c2=O)Cc2cc3ccccc3nc2-1` [CAMPTOTHECIN], the IC50 in the test with D-423MG came out at 2.55 nM; in the test with D-566MG it was 0.132 nM; with ECC10 it was 3.85 nM; in the test with EPLC-272H it was 72.8 nM; in the test on H-EMC-SS it was 95.6 nM; in the test on H9, 0.358 nM. Moreover, the IC50 in the test on NBsusSR is 0.194 nM; in the test with NCI-H1048 it was 0.529 nM; in the test on NCI-H1666, 18.7 nM; in the test with NCI-H2291, greater than 100 nM; in the test with OC-314, 2.51 nM; with SW900, 31.8 nM. Besides, the IC50 with A549 was determined as 14.1 nM; with BT-549 it was 17.6 nM; in the test with TGBC11TKB, 12.2 nM; in the test on TI-73, 14.6 nM; in the test with YH-13, 11.6 nM; in the test with CFPAC-1, 14.8 nM.

Take `CCNC(=O)c1noc(-c2cc(C(C)C)c(O)cc2O)c1-c1ccc(CN2CCOCC2)cc1` [LUMINESPIB]: the IC50 was greater than 256 nM with Caov-3 cell line; 123 nM in the test with DMS-53; greater than 256 nM in the test with DV-90; 7.54 nM in the test with EW-7; greater than 256 nM in the test with HCC1143; 96.4 nM with IPC-298. The IC50 with MES-SA was 4.52 nM; with MFE-296, 23.2 nM; in the test on NCI-H1618 it was greater than 256 nM; with NCI-H2227 it was greater than 256 nM; in the test with NCI-H838 it was 237 nM; in the test with RT-4 it was greater than 256 nM. For the same molecule, the IC50 was 79.9 nM with SK-CO-1; 8.56 nM with SNG-M; greater than 256 nM in the test with SNU-475; 122 nM in the test on C-4-II; greater than 256 nM in the test with TT; 2.97 nM with CCF-STTG1. The IC50 with COLO 205 came out at 49.2 nM.

On to `CO[C@@]12[C@H](COC(N)=O)C3=C(C(=O)C(C)=C(N)C3=O)N1C[C@@H]1N[C@@H]12` [MITOMYCIN], for which the IC50 was 162 nM in the test on Caov-3 cell line; 809 nM in the test with DMS-53; 2920 nM in the test with DV-90; less than 62.5 nM in the test with EW-7; 1070 nM in the test with HCC1143; 1230 nM with IPC-298. The IC50 with MES-SA came to 145 nM; in the test with MFE-296, 286 nM; in the test with NCI-H1618, 118 nM; in the test on NCI-H2227, 6320 nM; in the test with NCI-H838 it was 1230 nM; in the test with RT-4 it was 1700 nM. Moreover, the half-maximal inhibitory concentration (IC50) in the test with SK-CO-1 stood at 202 nM; with SNG-M, 134 nM; in the test on SNU-475, 813 nM; in the test with C-4-II, 104 nM; with TT it was 3680 nM; with CCF-STTG1 it was 216 nM. This molecule displayed a 50% inhibitory concentration (IC50) in the test on COLO 205 of less than 62.5 nM.

For the molecule `C/C=C(/C)C(=O)O[C@H]1C(C)=C2[C@H]([C@@H]1OC(=O)CCCCCCC)[C@@](C)(OC(C)=O)C[C@H](OC(=O)CCC)[C@@]1(O)[C@H]2OC(=O)[C@@]1(C)O` [THAPSIGARGIN], the IC50 in the test with Caov-3 cell line was found to be 37.2 nM; with DMS-53, 380 nM; in the test on DV-90, 28.8 nM; in the test with EW-7, 6.34 nM; with HCC1143, 2.07 nM; in the test on IPC-298, 6.54 nM. Also, the IC50 in the test with MES-SA was less than 2 nM; in the test with MFE-296, 2.95 nM; in the test on NCI-H1618, 10.1 nM; in the test with NCI-H2227, greater than 512 nM; in the test on NCI-H838, 35.3 nM; in the test with RT-4, 3.74 nM. Further, the 50% inhibitory concentration (IC50) in the test with SK-CO-1 is 17 nM; with SNG-M, less than 2 nM; with SNU-475, greater than 512 nM; with C-4-II, 20.6 nM; in the test with TT it was 217 nM; with CCF-STTG1, 67.3 nM. This molecule had an IC50 in the test with COLO 205 of 3.15 nM.

Turning to `C[C@]1(c2nc3c(C(N)=O)cccc3[nH]2)CCCN1` [VELIPARIB], the IC50 in the test on D-423MG, in the test on D-566MG, with ECC10, in the test with EPLC-272H, in the test with H-EMC-SS and with H9 was greater than 5000 nM each time. For the same molecule, the IC50 in the test on NBsusSR, in the test on NCI-H1048, with NCI-H1666, with NCI-H2029, with NCI-H2291 and in the test on OC-314 was greater than 5000 nM throughout. The IC50 in the test with RH-18, in the test with SW 1116, in the test with SW900, in the test on A549, in the test on BALL-1 and in the test with BT-549 was greater than 5000 nM in each case. Besides, the IC50 in the test with TGBC11TKB, in the test on TI-73, in the test on YH-13, in the test on ZR-75-30 and in the test with CFPAC-1 was greater than 5000 nM in each case.
